From US20260199484A1, “PROTAC DEGRADERS OF MLLT1 AND/OR MLLT3” (DARK BLUE THERAPEUTICS LTD, priority 2024, published 2026) come the findings set out here.

The test system of one experiment is MV4-11 cells. Briefly: MV4-11 cellular proliferative assay, Assay Format A (CellTiter-Glo, 120 h). The following applies: Homo sapiens, Assay format A, 120 h, read-out: IC50 (MV4-11 cellular proliferative assay). The class given is cell-based. The protocol:
An MV4-11 proliferation assay was used to test the ability of compounds to reduce cell viability. MV4-11 cells (ATCC #CRL9591) were grown in IMDM medium (11510596, Gibco) supplemented with 10% fetal bovine serum (F7524, Gibco) and 1% Penicillin/Streptomycin (15140-122, Gibco) at 37° C. with 5% CO2. Cells were seeded in 384-well Elplasia plates (4447, Corning) at a density of 50 cells/well and treated with vehicle (DMSO) or compounds (10 serial semi-log dilutions, 30 μM as top concentration).
After 120 hours of treatment, cells were incubated for 10 min at RT with the CellTiter-Glo (CTG) reagent (G7571, Promega). Measurement of the luminescence signal was performed on a microplate reader (Ensight, PerkinElmer). CTG reagent measures the amount of ATP, which is directly proportional to the number of cells, to determine the number of viable cells in culture.
The data were analysed as follows:
[formula] • where x is the measured raw signal value of a well, (cr) is the median of the measured signal values for the Central Reference (DMSO) wells on a plate, (sr) is the median of the measured signal values for the Scale Reference (reference compound) wells on a plate.
[formula] • where the experimental set-up assumes the Hill parameters in certain ranges: S0~Central Reference (CR) from normalization (=Bottom), Sinf~Scale Reference (SR) from normalization (=Top), nHill ~1, AC50~within the measured concentration range.
(Cellular ATP, detected with luciferase, serves as a proxy for viable cell number.)

In a further experiment the target is T1, MLLT1 (Homo sapiens, UniProt Q03111).
T1 sequence (Q03111 1-559): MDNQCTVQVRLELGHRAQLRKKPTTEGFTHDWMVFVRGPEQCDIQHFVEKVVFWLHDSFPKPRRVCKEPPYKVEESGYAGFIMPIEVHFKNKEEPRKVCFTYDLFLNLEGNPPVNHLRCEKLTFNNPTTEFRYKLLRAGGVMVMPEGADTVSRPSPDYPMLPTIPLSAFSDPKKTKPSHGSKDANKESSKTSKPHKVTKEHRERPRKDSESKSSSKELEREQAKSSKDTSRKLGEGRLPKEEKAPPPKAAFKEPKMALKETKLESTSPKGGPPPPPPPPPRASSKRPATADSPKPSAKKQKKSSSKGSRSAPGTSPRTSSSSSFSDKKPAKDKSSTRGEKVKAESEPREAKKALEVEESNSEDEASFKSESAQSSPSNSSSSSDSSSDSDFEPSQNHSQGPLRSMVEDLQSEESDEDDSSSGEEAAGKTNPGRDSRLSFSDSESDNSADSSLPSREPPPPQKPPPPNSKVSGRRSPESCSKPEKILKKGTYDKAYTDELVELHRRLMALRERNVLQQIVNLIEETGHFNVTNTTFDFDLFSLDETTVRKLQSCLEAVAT
Briefly: MLLT1 degradation assay in MV4-11 cells (JESS, 24 h). The class given is cell-based. Set-up: endogenous in cells; host or cells: MV4-11 (ATCC CRL-9591). To be noted: vs DMSO control. In a few lines:
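MV4-11 cells treated at 1000, 100 and 10 nM (0.1% DMSO) for 24 h at 37° C; lysates (4 ug protein) run on JESS capillary immunoassay with MLLT1 and GAPDH antibodies. Peak areas give % degradation versus DMSO, binned A (≥75%) to D (<25%).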

SMILES strings stand for the structures.

The IC50 is the concentration that inhibits the measured activity by half. For the compound `Cc1nn(CCCCCCCCNc2cccc3c2C(=O)N(C2CCC(=O)NC2=O)C3=O)c2cc(C(=O)Nc3cc4[nH]c([C@H]5CCCN5C)cc4cn3)ccc12` (stereo partly drawn) [Example 3, 1-(8-{[2-(2,6-dioxopiperidin-3-yl)-1,3-dioxoisoindol-4-yl]amino}octyl)-3-methyl-N-{2-[(2R)-1-methylpyrrolidin-2-yl]-1H-pyrrolo[3,2-c]pyridin-6-yl}indazole-6-carboxamide], the IC50 with MV4-11 cells is below 100 nM. On MLLT1, the “MLLT1% Degradation @ 0.01 μM” value is given as “B (Category B: 50%≤B<75% degradation)”, the “MLLT1% Degradation @ 0.1 μM” value is listed as “A (Category A: A≥75% degradation)” and the “MLLT1% Degradation @ 1 μM” value is given as “A (Category A: A≥75% degradation)”.
In the case of `Cc1nn(CCCCCCCCNc2cccc3c2C(=O)N(C2CCC(=O)NC2=O)C3=O)c2cc(C(=O)Nc3cc4[nH]c(C5CCCN5C)cc4cn3)ccc12` (racemic) [Example 2, rac-1-(8-{[2-(2,6-dioxopiperidin-3-yl)-1,3-dioxoisoindol-4-yl]amino}octyl)-3-methyl-N-[2-(1-methylpyrrolidin-2-yl)-1H-pyrrolo[3,2-c]pyridin-6-yl]indazole-6-carboxamide], in the experiment on MV4-11 cells, the IC50 was below 100 nM. For the same compound, on MLLT1, the “MLLT1% Degradation @ 0.01 μM” value is “B (Category B: 50%≤B<75% degradation)”, the “MLLT1% Degradation @ 0.1 μM” value is listed as “A (Category A: A≥75% degradation)” and the “MLLT1% Degradation @ 1 μM” value is listed as “A (Category A: A≥75% degradation)”.
`[2H]C([2H])([2H])N1CCC[C@@H]1c1cc2cnc(NC(=O)c3ccc4c(C)nn(CCCCCCCC#Cc5cccc6c5CN(C5CCC(=O)NC5=O)C6=O)c4c3)cc2[nH]1` (stereo partly drawn) [Example 44, 1-(9-(2-(2,6-dioxopiperidin-3-yl)-1-oxoisoindolin-4-yl)non-8-yn-1-yl)-3-methyl-N-(2-((R)-1-(methyl-d3)pyrrolidin-2-yl)-1H-pyrrolo[3,2-c]pyridin-6-yl)-1H-indazole-6-carboxamide]: the IC50 with MV4-11 cells was below 100 nM. In addition, at MLLT1, the “MLLT1% Degradation @ 0.01 μM” value is recorded as “B (Category B: 50%≤B<75% degradation)”, the “MLLT1% Degradation @ 0.1 μM” value is “A (Category A: A≥75% degradation)” and the “MLLT1% Degradation @ 1 μM” value was “A (Category A: A≥75% degradation)”.
On to `Cc1nn(CCCC2CCN(c3cccc4c3C(=O)N(C3CCC(=O)NC3=O)C4=O)CC2)c2cc(C(=O)Nc3cc4[nH]c([C@H]5CCCN5C)cc4cn3)ccc12` (stereo partly drawn) [Example 27, 1-(3-(1-(2-(2,6-dioxopiperidin-3-yl)-1,3-dioxoisoindolin-4-yl)piperidin-4-yl)propyl)-3-methyl-N-(2-((R)-1-methylpyrrolidin-2-yl)-1H-pyrrolo[3,2-c]pyridin-6-yl)-1H-indazole-6-carboxamide], for which the IC50 with MV4-11 cells was below 100 nM. In addition, at MLLT1, the “MLLT1% Degradation @ 0.01 μM” value is listed as “A (Category A: A≥75% degradation)”, the “MLLT1% Degradation @ 0.1 μM” value is listed as “A (Category A: A≥75% degradation)” and the “MLLT1% Degradation @ 1 μM” value was “A (Category A: A≥75% degradation)”.
On to `Cc1nn(CCCCC#Cc2cccc3c2CN(C2CCC(=O)NC2=O)C3=O)c2cc(C(=O)Nc3cc4[nH]c([C@H]5CCCN5C)cc4cn3)ccc12` (stereo partly drawn) [Example 46, 1-(6-(2-(2,6-dioxopiperidin-3-yl)-1-oxoisoindolin-4-yl)hex-5-yn-1-yl)-3-methyl-N-(2-((R)-1-methylpyrrolidin-2-yl)-1H-pyrrolo[3,2-c]pyridin-6-yl)-1H-indazole-6-carboxamide], for which the IC50 in the experiment with MV4-11 cells was below 100 nM. Further, on MLLT1, the “MLLT1% Degradation @ 0.01 μM” value is “A (Category A: A≥75% degradation)”, the “MLLT1% Degradation @ 0.1 μM” value was “A (Category A: A≥75% degradation)” and the “MLLT1% Degradation @ 1 μM” value is “B (Category B: 50%≤B<75% degradation)”.
With `Cc1nn(CCCCCC2CCN(c3cccc4c3C(=O)N(C3CCC(=O)NC3=O)C4=O)CC2)c2cc(C(=O)Nc3cc4[nH]c([C@H]5CCCN5C)cc4cn3)ccc12` (stereo partly drawn) [Example 29, 1-(5-(1-(2-(2,6-dioxopiperidin-3-yl)-1,3-dioxoisoindolin-4-yl)piperidin-4-yl)pentyl)-3-methyl-N-(2-((R)-1-methylpyrrolidin-2-yl)-1H-pyrrolo[3,2-c]pyridin-6-yl)-1H-indazole-6-carboxamide], the IC50 in the experiment with MV4-11 cells was below 100 nM. On MLLT1, the “MLLT1% Degradation @ 0.01 μM” value is reported as “B (Category B: 50%≤B<75% degradation)”, the “MLLT1% Degradation @ 0.1 μM” value is reported as “A (Category A: A≥75% degradation)” and the “MLLT1% Degradation @ 1 μM” value was “A (Category A: A≥75% degradation)”.
Take `Cc1nn(CCCCNc2cccc3c2C(=O)N(C2CCC(=O)NC2=O)C3=O)c2cc(C(=O)Nc3cc4[nH]c([C@H]5CCCN5C)cc4cn3)ccc12` (stereo partly drawn) [Example 21, 1-(4-((2-(2,6-dioxopiperidin-3-yl)-1,3-dioxoisoindolin-4-yl)amino)butyl)-3-methyl-N-(2-((R)-1-methylpyrrolidin-2-yl)-1H-pyrrolo[3,2-c]pyridin-6-yl)-1H-indazole-6-carboxamide]: the half-inhibitory concentration (IC50) with MV4-11 cells is below 100 nM. Also, at MLLT1, the “MLLT1% Degradation @ 0.01 μM” value is listed as “A (Category A: A≥75% degradation)”, the “MLLT1% Degradation @ 0.1 μM” value is “A (Category A: A≥75% degradation)” and the “MLLT1% Degradation @ 1 μM” value was “A (Category A: A≥75% degradation)”.
Regarding `Cc1nn(CCCCCCNc2cccc3c2C(=O)N(C2CCC(=O)NC2=O)C3=O)c2cc(C(=O)Nc3cc4[nH]c([C@H]5CCCN5C)cc4cn3)ccc12` (stereo partly drawn) [Example 22, 1-(6-{[2-(2,6-dioxopiperidin-3-yl)-1,3-dioxoisoindol-4-yl]amino}hexyl)-3-methyl-N-{2-[(2R)-1-methylpyrrolidin-2-yl]-1H-pyrrolo[3,2-c]pyridin-6-yl}indazole-6-carboxamide], the IC50 with MV4-11 cells was below 100 nM. For the same compound, on MLLT1, the “MLLT1% Degradation @ 0.01 μM” value is on record as “A (Category A: A≥75% degradation)”, the “MLLT1% Degradation @ 0.1 μM” value is “A (Category A: A≥75% degradation)” and the “MLLT1% Degradation @ 1 μM” value is given as “A (Category A: A≥75% degradation)”.
Consider `Cc1nn(CCCCCCCCNc2ccc3c(c2)C(=O)N(C2CCC(=O)NC2=O)C3=O)c2cc(C(=O)Nc3cc4[nH]c([C@@H]5CCCN5C)cc4cn3)ccc12` (stereo partly drawn) [Example 15, 1-(8-{[2-(2,6-dioxopiperidin-3-yl)-1,3-dioxoisoindol-5-yl]amino}octyl)-3-methyl-N-{2-[(2S)-1-methylpyrrolidin-2-yl]-1H-pyrrolo[3,2-c]pyridin-6-yl}indazole-6-carboxamide], for which the IC50 with MV4-11 cells is below 100 nM. In addition, at MLLT1, the “MLLT1% Degradation @ 0.01 μM” value is “D (Category D: D<25% degradation)”, the “MLLT1% Degradation @ 0.1 μM” value is “A (Category A: A≥75% degradation)” and the “MLLT1% Degradation @ 1 μM” value was “A (Category A: A≥75% degradation)”.
Consider `Cc1nn(CCCCCCCCNc2cccc3c2CN(C2CCC(=O)NC2=O)C3=O)c2cc(C(=O)Nc3cc4[nH]c([C@H]5CCCN5C)cc4cn3)ccc12` (stereo partly drawn) [Example 16, 1-(8-{[2-(2,6-dioxopiperidin-3-yl)-1-oxo-3H-isoindol-4-yl]amino}octyl)-3-methyl-N-{2-[(2R)-1-methylpyrrolidin-2-yl]-1H-pyrrolo[3,2-c]pyridin-6-yl}indazole-6-carboxamide], for which, in the experiment with MV4-11 cells, the IC50 was below 100 nM. Moreover, at MLLT1, the “MLLT1% Degradation @ 0.01 μM” value is listed as “A (Category A: A≥75% degradation)”, the “MLLT1% Degradation @ 0.1 μM” value was “A (Category A: A≥75% degradation)” and the “MLLT1% Degradation @ 1 μM” value is “A (Category A: A≥75% degradation)”.
